Measured values taken from patent US12077503B2, “Substituted cyclic amides and their use as herbicides” (FMC CORPORATION, priority 2015, dated 2024).

Legend:
Type in all cases: in vivo
[1] = test system: pigweed (Amaranthus retroflexus); assay: Test A preemergence; conditions: Amaranthus retroflexus, pre-emergence, 240 h, read-out: Plant response rating, Pigweed; for pest or weed control at 125 g/ha: 125 g ai/ha, visual rating after approx. 10 d, 0 to 100 scale where 0 is no effect and 100 is complete control; for pest or weed control at 125 g/ha / pest or weed control at 500 g/ha: preemergence; for pest or weed control at 500 g/ha: 500 g ai/ha, 0 to 100 scale, 0 = no effect, 100 = complete control
[2] = test system: ragweed (common ragweed, Ambrosia elatior); assay: Test A preemergence; conditions: Ambrosia artemisiifolia, pre-emergence, 240 h, read-out: Plant response rating, Ragweed; for pest or weed control at 125 g/ha: 125 g ai/ha, visual rating after approx. 10 d, 0 to 100 scale where 0 is no effect and 100 is complete control; for pest or weed control at 125 g/ha / pest or weed control at 500 g/ha: preemergence; for pest or weed control at 500 g/ha: 500 g ai/ha, 0 to 100 scale, 0 = no effect, 100 = complete control
In short: (§1)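 Greenhouse, ~10 d after spray; visual injury vs untreated controls, 0 = no effect, 100 = complete control. Preemergence: directed soil spray over planted seeds. Postemergence: plants 2–10 cm, 1–2 leaf stage. Loam/sand blend. Compound in non-phytotoxic solvent with surfactant.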

[3] = test system: ryegrass, Italian (Italian ryegrass, Lolium multiflorum); assay: Test A preemergence; conditions: Lolium multiflorum, pre-emergence, 240 h, read-out: Plant response rating, Ryegrass, Italian; for pest or weed control at 125 g/ha: 125 g ai/ha, visual rating after approx. 10 d, 0 to 100 scale where 0 is no effect and 100 is complete control
In short: as §1

[4] = test system: barnyardgrass (Echinochloa crus-galli); assay: Test A preemergence; conditions: Echinochloa crus-galli, pre-emergence, 240 h, read-out: Plant response rating, Barnyardgrass; for pest or weed control at 125 g/ha: 125 g ai/ha, visual rating after approx. 10 d, 0 to 100 scale where 0 is no effect and 100 is complete control; for pest or weed control at 125 g/ha / pest or weed control at 500 g/ha: preemergence; for pest or weed control at 500 g/ha: 500 g ai/ha, 0 to 100 scale, 0 = no effect, 100 = complete control
In short: as §1

[5] = test system: Kochia (Kochia scoparia); assay: Test A preemergence; conditions: Bassia scoparia, pre-emergence, 240 h, read-out: Plant response rating, Kochia; for pest or weed control at 125 g/ha: 125 g ai/ha, visual rating after approx. 10 d, 0 to 100 scale where 0 is no effect and 100 is complete control; for pest or weed control at 125 g/ha / pest or weed control at 500 g/ha: preemergence; for pest or weed control at 500 g/ha: 500 g ai/ha, 0 to 100 scale, 0 = no effect, 100 = complete control
In short: as §1

[6] = test system: giant foxtail (Setaria faberii); assay: Test A preemergence; conditions: Setaria faberi, pre-emergence, 240 h, read-out: Plant response rating, Foxtail, Giant; for pest or weed control at 125 g/ha: 125 g ai/ha, visual rating after approx. 10 d, 0 to 100 scale where 0 is no effect and 100 is complete control; for pest or weed control at 125 g/ha / pest or weed control at 500 g/ha: preemergence; for pest or weed control at 500 g/ha: 500 g ai/ha, 0 to 100 scale, 0 = no effect, 100 = complete control
In short: as §1

[7] = test system: corn (Zea mays); assay: Test A postemergence; conditions: Zea mays, post-emergence, 240 h; for Corn plant response rating (crop injury, 0 = no effect, 100 = complete kill) at 125 g/ha: 125 g ai/ha, postemergence, visual injury after approximately 10 d, 0 to 100 scale (0 no effect, 100 complete control)
In short: as §1

[8] = test system: Galium (catchweed bedstraw, Galium aparine); assay: Test A postemergence; conditions: Galium, post-emergence, 240 h, read-out: Plant response rating, Galium; for pest or weed control at 125 g/ha: 125 g ai/ha, postemergence, visual injury after approximately 10 d, 0 to 100 scale (0 no effect, 100 complete control)
In short: as §1

[9] = test system: pigweed (Amaranthus retroflexus); assay: Test A postemergence; conditions: Amaranthus retroflexus, post-emergence, 240 h, read-out: Plant response rating, Pigweed; for pest or weed control at 125 g/ha: 125 g ai/ha, postemergence, visual injury after approximately 10 d, 0 to 100 scale (0 no effect, 100 complete control)
In short: as §1

[10] = test system: ragweed (common ragweed, Ambrosia elatior); assay: Test A postemergence; conditions: Ambrosia artemisiifolia, post-emergence, 240 h, read-out: Plant response rating, Ragweed; for pest or weed control at 125 g/ha: 125 g ai/ha, postemergence, visual injury after approximately 10 d, 0 to 100 scale (0 no effect, 100 complete control)
In short: as §1

[11] = test system: blackgrass (Alopecurus myosuroides); assay: Test A postemergence; conditions: Alopecurus myosuroides, post-emergence, 240 h, read-out: Plant response rating, Blackgrass; for pest or weed control at 125 g/ha: 125 g ai/ha, postemergence, visual injury after approximately 10 d, 0 to 100 scale (0 no effect, 100 complete control)
In short: as §1

[12] = test system: ryegrass, Italian (Italian ryegrass, Lolium multiflorum); assay: Test A postemergence; conditions: Lolium multiflorum, post-emergence, 240 h, read-out: Plant response rating, Ryegrass, Italian; for pest or weed control at 125 g/ha: 125 g ai/ha, postemergence, visual injury after approximately 10 d, 0 to 100 scale (0 no effect, 100 complete control)
In short: as §1

[13] = test system: wheat (Triticum aestivum); assay: Test A postemergence; conditions: Triticum aestivum, post-emergence, 240 h, read-out: Plant response rating, Wheat; for plant injury at 125 g/ha: 125 g ai/ha, postemergence, visual injury after approximately 10 d, 0 to 100 scale (0 no effect, 100 complete control)
In short: as §1

[14] = test system: barnyardgrass (Echinochloa crus-galli); assay: Test A postemergence; conditions: Echinochloa crus-galli, post-emergence, 240 h, read-out: Plant response rating, Barnyardgrass; for pest or weed control at 125 g/ha: 125 g ai/ha, postemergence, visual injury after approximately 10 d, 0 to 100 scale (0 no effect, 100 complete control)
In short: as §1

[15] = test system: Kochia (Kochia scoparia); assay: Test A postemergence; conditions: Bassia scoparia, post-emergence, 240 h, read-out: Plant response rating, Kochia; for pest or weed control at 125 g/ha: 125 g ai/ha, postemergence, visual injury after approximately 10 d, 0 to 100 scale (0 no effect, 100 complete control)
In short: as §1

[16] = test system: giant foxtail (Setaria faberii); assay: Test A postemergence; conditions: Setaria faberi, post-emergence, 240 h, read-out: Plant response rating, Foxtail, Giant; for pest or weed control at 125 g/ha: 125 g ai/ha, postemergence, visual injury after approximately 10 d, 0 to 100 scale (0 no effect, 100 complete control)
In short: as §1

[17] = Preemergence, 31 g ai/ha, 0 to 100 scale (0 no effect, 100 complete control)
[18] = Postemergence, 31 g ai/ha, visual injury after approx. 10 d, 0 to 100 scale, 0 no effect, 100 complete control

SMILES: C/C=C/C1CNC(=O)C1C(=O)Nc1ccccc1F (centres unmarked) [Compound 792]
- pest or weed control at 125 g/ha [1]: 0%
- pest or weed control at 31 g/ha [1, 17]: 0%
- pest or weed control at 125 g/ha [2]: 0%
- pest or weed control at 31 g/ha [2, 17]: 0%
- pest or weed control at 125 g/ha ([3]; preemergence): 0%
- pest or weed control at 31 g/ha [3, 17]: 0%
- pest or weed control at 125 g/ha [4]: 0%
- pest or weed control at 31 g/ha [4, 17]: 0%
- pest or weed control at 125 g/ha [5]: 0%
- pest or weed control at 31 g/ha [5, 17]: 0%
- pest or weed control at 125 g/ha [6]: 0%
- pest or weed control at 31 g/ha [6, 17]: 0%
- Corn plant response rating (crop injury, 0 = no effect, 100 = complete kill) at 125 g/ha [7]: 0%
- Corn plant response rating (crop injury, 0 = no effect, 100 = complete kill) at 31 g/ha [7, 18]: 0%
- pest or weed control at 125 g/ha [8]: 0%
- pest or weed control at 31 g/ha [8, 18]: 0%
- pest or weed control at 125 g/ha [9]: 0%
- pest or weed control at 31 g/ha [9, 18]: 0%
- pest or weed control at 125 g/ha [10]: 0%
- pest or weed control at 31 g/ha [10, 18]: 0%
- pest or weed control at 125 g/ha [11]: 0%
- pest or weed control at 31 g/ha [11, 18]: 0%
- pest or weed control at 125 g/ha [12]: 0%
- pest or weed control at 31 g/ha [12, 18]: 0%
- plant injury at 31 g/ha [13, 18]: 0%
- pest or weed control at 125 g/ha [14]: 0%
- pest or weed control at 31 g/ha [14, 18]: 0%
- pest or weed control at 125 g/ha [15]: 0%
- pest or weed control at 31 g/ha [15, 18]: 0%
- pest or weed control at 125 g/ha [16]: 0%
- pest or weed control at 31 g/ha [16, 18]: 0%

SMILES: CN1C[C@H](c2cc(F)c(F)c(F)c2)[C@@H](C(=O)Nc2ccc(F)c(F)c2F)C1=O [Compound 757]
- pest or weed control at 125 g/ha [1]: 30%
- pest or weed control at 500 g/ha [1]: 70%
- pest or weed control at 125 g/ha [2]: 20%
- pest or weed control at 500 g/ha [2]: 90%
- pest or weed control at 125 g/ha ([3]; preemergence): 30%
- pest or weed control at 500 g/ha ([3]; 500 g ai/ha, preemergence, 0 to 100 scale, 0 = no effect, 100 = complete control): 60%
- pest or weed control at 125 g/ha [4]: 90%
- pest or weed control at 500 g/ha [4]: 90%
- pest or weed control at 125 g/ha [5]: 70%
- pest or weed control at 500 g/ha [5]: 70%
- pest or weed control at 125 g/ha [6]: 90%
- pest or weed control at 500 g/ha [6]: 90%
- Corn plant response rating (crop injury, 0 = no effect, 100 = complete kill) at 125 g/ha [7]: 70%
- pest or weed control at 125 g/ha [8]: 50%
- pest or weed control at 125 g/ha [9]: 20%
- pest or weed control at 125 g/ha [10]: 0%
- pest or weed control at 125 g/ha [11]: 60%
- pest or weed control at 125 g/ha [12]: 20%
- plant injury at 125 g/ha [13]: 60%
- pest or weed control at 125 g/ha [14]: 90%
- pest or weed control at 125 g/ha [15]: 20%
- pest or weed control at 125 g/ha [16]: 90%

SMILES: CCc1ccc([C@H]2CNC(=S)[C@@H]2C(=O)Nc2cccc(F)c2F)cc1 [Compound 762]
- pest or weed control at 125 g/ha [1]: 0%
- pest or weed control at 500 g/ha [1]: 0%
- pest or weed control at 125 g/ha [2]: 0%
- pest or weed control at 500 g/ha [2]: 50%
- pest or weed control at 125 g/ha ([3]; preemergence): 20%
- pest or weed control at 125 g/ha [4]: 100%
- pest or weed control at 500 g/ha [4]: 100%
- pest or weed control at 125 g/ha [5]: 0%
- pest or weed control at 500 g/ha [5]: 50%
- pest or weed control at 125 g/ha [6]: 70%
- pest or weed control at 500 g/ha [6]: 100%
- Corn plant response rating (crop injury, 0 = no effect, 100 = complete kill) at 125 g/ha [7]: 0%
- pest or weed control at 125 g/ha [8]: 0%
- pest or weed control at 125 g/ha [9]: 0%
- pest or weed control at 125 g/ha [10]: 0%
- pest or weed control at 125 g/ha [11]: 0%
- pest or weed control at 125 g/ha [12]: 0%
- plant injury at 125 g/ha [13]: 0%
- pest or weed control at 125 g/ha [14]: 90%
- pest or weed control at 125 g/ha [15]: 0%
- pest or weed control at 125 g/ha [16]: 20%
